# In US20250213527A1, “FORMULATIONS OF PSILOCYBIN ANALOGS AND METHODS OF USE” (priority 2021, published 2025):
# “Also recorded” adds a separate entry of the source. Counter-ions that a name gives are not always drawn. Marks after values point to notes of the source that are not given here.
# Columns and labels:
# [1] = Psilocin stability in 0.1 M acid solutions with or without metal ions, 40 °C; type: physicochemical; conditions: up to 24 h
# Source text: Ascorbic acid (AsA), acetic acid (AcA), tartaric acid (TA), fumaric acid (FA), citric acid (CA), malic acid (MA), benzenesulfonic acid (BSA), stearic acid (SA), sodium citrate dihydrate, monosodium phosphate hydrate, disodium phosphate were purchased from Sigma Aldrich. Aluminum (III) chloride (AlCl3) and iron (III) chloride (FeCl3) were purchased from Sigma Aldrich. Antioxidants, i.e., ethylenediaminetetraacetic acid (EDTA), ascorbic acid (AsA), L-cysteine (Cys), sodium metabisulfite (NamBiSO3) and propyl gallate (PG) were purchased from Sigma Aldrich. Hydroxypropyl-β-cyclodextrin (CAVASOL® W7 HP, CAVITRON® W7 HP7) and methyl-β-cyclodextrin (CAVASOL® W7 M) were provided by DuPont.
# The following chromatographic conditions were used:
# Diluent. The diluent used in the below studies was prepared as follows: 100 mL of acetonitrile (ACN) was mixed with 800 mL of water and 100 mL of 1.0 M citric acid and mixed well to prepare 1 L of diluent.
# The stability of psilocin in 0.1 M solutions of various acids was tested.
# Test solutions: To prepare the test solutions, 0.1 M solutions of AsA, AcA, TA, FA, CA, MA, BSA, and SA were prepared in DI water.
# [2] = Psilocin stability in 0.1 M sodium citrate buffer at 4, 23 and 40 °C; type: physicochemical
# Protocol: (§1) Preparation of 0.1 M sodium citrate buffer (pH 6.01): 2.427 g of sodium citrate dihydrate and 0.336 g of citric acid were dissolved in 80 ml of DI water. The pH was adjusted to 6.0 using a 1 M NaOH solution. The final volume was adjusted to 100 ml.
# [3] = Psilocin stability comparison between sodium citrate and phosphate buffer, 40 °C; type: physicochemical; conditions: 0.1 M, 24 h
# Protocol: The effect of buffer type and pH on the stability of psilocin was assessed.
# as §1
# Preparation of 0.1 M phosphate buffer (pH 6.0 and pH 7.5): Monosodium phosphate (0.339 g, 0.002 moles) and disodium phosphate (2.021 g, 0.014 moles) were dissolved in 80 ml water and the pH was adjusted as necessary using sodium hydroxide or phosphoric acid. The volume was adjusted to 100 ml using water.
# Test solutions: Psilocin (1 mg/ml) was mixed with (i) 0.1 M sodium citrate buffer (pH 6.01), (ii) 0.1 M phosphate buffer (pH 6.0), and (iii) 0.1 M phosphate buffer (pH 7.5) in a 1:1 v/v ratio.
# [4] = Long-term (up to 25 days) psilocin stability in citric acid solution and sodium citrate buffer; type: physicochemical; conditions: 0.1 M
# Protocol: The long-term stability (up to 25 days) of psilocin in a citric acid solution (0.1 M, pH 1.60) and a sodium citrate buffer (0.1 M, pH 6.01) at 4C and 23° C. was assessed.
# as §1
# Test solutions: Psilocin (1 mg/ml), was mixed with (i) sodium citrate buffer (0.1 M, pH 6.01) and (ii) citric acid solution (0.1 M, pH 1.60) in 1:1 v/v. The samples were stored at 4° C. and 23° C., and aliquots were sampled at designated timepoints (days 0, 7, 17, and 25).
# [5] = Psilocin stability with cyclodextrin complexes, 40 °C; conditions: 1% w/w cyclodextrin, up to 24 h
# [6] = Psilocin stability in dilute citric acid solution at 4, 23 and 40 °C
# [7] = Psilocin stability with antioxidants against metal induced degradation, 40 °C; conditions: 20 μM antioxidant, up to 24 h
# [8] = Plasma pharmacokinetics and bioavailability in rats, oral gavage and intravenous (bolus); conditions: for Tmax: rat plasma, label = analyte, IAD = immediately after dosing
# [9] = Maturation in 12 different solvents with thermal cycling, XRPD; type: physicochemical; conditions: slurries cycled between room temperature and 50 °C (4 hours each) for 3 days
# Protocol: The resulting slurries were subjected to maturation with thermal cycling between room temperature and 50° C. (4 hours at each condition) for 3 days. Solids were then analysed by XRPD.
# [10] = Solubility in FaSSGF (Fasted State Simulated Gastric Fluid) at 37 °C; type: physicochemical; conditions: free base component, average n=2
# Protocol: Preparation of solutions: Solubility tests in FaSSGF were carried out at 37° C. and in water at room temperature for 2 hour and 6 hour timepoints. 50 mg solid was added to 0.5 mL media and incubated on an orbital shaker for 6 hours. (For free base in water 20 mg samples were used). Slurry/solution was sampled at 2 and 6 hours and aliquots were filtered through 0.45 micron PTFE filters. The filtrate was diluted 500 fold with the appropriate (same) media and injected on to UPLC.
# (For free base in water ≥40 mg·mL^−1). […] Results were calculated based on a standard calibration curve of appropriate free base. Values quoted are for the free base component of each salt and are average of two (n=2) determinations.
# [11] = Observation of isolated freeze dried solid; type: physicochemical; conditions: freeze dried citrate salt
# Protocol: This gave an oil. Additional water was added until a solution was obtained. […] The obtained citrate salt was amorphous as shown by X-ray powder diffraction (XRPD) pattern in FIG. 37A.
# [12] = Brain tissue concentrations in rats after intravenous dosing
# [13] = Group 3, IV, psilocybin dosed 2.8 mg/kg
smiles,measurement,setting,value
"CN(C)CCc1c[nH]c2cccc(O)c12 [Compound I-7, 3-(2-(dimethylamino)ethyl)-1H-indol-4-ol]","solution stability in 0.1 M acid solutions (solution-phase salts), with or without metal salts",[1]; all tested acids,excellent stability
same,solution stability of psilocin without acid,[1],nearly all psilocin being degraded within 24 hours
same,solution stability without acid in presence of Fe3+ and Al3+ metal ions,[1],significant psilocin degradation
same,effect of metal salts (Fe3+ and Al3+) in citrate buffer,[2]; 0.1 M sodium citrate buffer pH 6.01,no detrimental effects
same,solution stability in non-citrate buffered solutions with Fe3+ and Al3+,"[2]; 4, 23 and 40 °C",significant psilocin degradation
same,solution stability without sodium citrate buffer,"[2]; 4, 23 and 40 °C",nearly all psilocin being degraded by the 18 hour time point
same,degradation of psilocin in 0.1 M sodium citrate buffer,"[2]; 40 °C, up to 24 h",10-15%
same,solution stability in 0.1 M sodium citrate buffer,"[2]; pH 6.01, 4 °C and room temperature, up to 24 h",greatly stabilized psilocin
same,stability in phosphate buffer pH 6.0 versus pH 7.5,[3],better stability than at pH 7.5
same,long-term stability in citric acid solution,"[4]; pH 1.60, 4 °C and 23 °C",only minimal degradation
same,"long-term stability in sodium citrate buffer, cold storage","[4]; pH 6.01, 4 °C",remained stable for up to 17 days
same,"long-term stability in sodium citrate buffer, room temperature","[4]; pH 6.01, 23 °C",degradation of psilocin began within a week
same,stability with cyclodextrins against high temperature or metal induced degradation,[5],cyclodextrins did not impart stability
same,solution stability without citric acid,"[6]; 4, 23 and 40 °C",nearly all psilocin being degraded by the 18 hour time point
same,solution stability without citric acid in presence of Fe3+ and Al3+,"[6]; 4, 23 and 40 °C",significant psilocin degradation
same,solution stability with small quantities of citric acid (pH 3.2),"[6]; 4 °C and room temperature (23 °C), up to 24 h",greatly enhanced the stability of psilocin
same,psilocin stabilization (% psilocin remaining) with small quantities of citric acid,"[6]; 40 °C, 24 hour time point",30%
same,"stability against metal salts with antioxidants (EDTA, ascorbic acid, L-cysteine, sodium metabisulfite, propyl gallate)",[7],none of the antioxidants tested were able to provide stability
same,Tmax,"[8]; Group 1, IV, psilocin + psilocin-d10 1 + 1 mg/kg",IAD
same,Tmax,[8]; [13],IAD
same,"onset, duration and variability of plasma exposure versus oral psilocybin","[8]; rats, oral","a faster onset, a shorter duration of effect, and less variability in drug exposure than oral psilocybin"
"CN(C)CCc1c[nH]c2cccc(O)c12 [Compound I-7b, tartrate salt of 3-(2-(dimethylamino)ethyl)-1H-indol-4-ol]",crystalline form by XRPD after maturation in 12 different solvents,[9],retained their initial crystalline form
"[2H]C([2H])([2H])N(C([2H])([2H])[2H])C([2H])([2H])C([2H])([2H])c1c[nH]c2cccc(O)c12 [Compound I-3j, Benzoate Salt of 3-(2-(bis(methyl-d3)amino)ethyl-1,1,2,2-d4)-1H-indol-4-ol]",crystalline form by XRPD after maturation in 12 different solvents,[9],retained their initial crystalline form (pattern 1)
same,Solubility FaSSGF 6 hours,[10],12.79 mg/mL
"CN(C)CCc1c[nH]c2cccc(O)c12 [Compound I-7c, Hemi-Fumarate Salt of 3-(2-(dimethylamino)ethyl)-1H-indol-4-ol]",crystalline form by XRPD after maturation in 12 different solvents,[9],complex polymorphism with multiple crystalline patterns obtained
same,Solubility FaSSGF 6 hours,[10],≥ 52.25* mg/mL
"CN(C)CCc1c[nH]c2cccc(O)c12 [Compound I-7j, Benzoate Salt of 3-(2-(dimethylamino)ethyl)-1H-indol-4-ol]",crystalline form by XRPD after maturation in 12 different solvents,[9],retained their initial crystalline form; also recorded: the same pattern 1 by XRPD was observed
same,Solubility FaSSGF 6 hours,[10],9.79 mg/mL
"CN(C)CCc1c[nH]c2cccc(O)c12 [Compound I-7e, Citrate Salt of 3-(2-(dimethylamino)ethyl)-1H-indol-4-ol]",behaviour of isolated amorphous solid,[11],hygroscopic and rapidly became sticky
"CN(C)CCc1c[nH]c2cccc(O)c12 [Compound I-7a, benzenesulfonate salt of 3-(2-(dimethylamino)ethyl)-1H-indol-4-ol]",crystalline form by XRPD after maturation in 12 different solvents,[9],retained their initial crystalline form (pattern 1)
"CN(C)CCc1c[nH]c2cccc(OP(=O)(O)O)c12 [psilocybin, Psilocybin]",brain concentrations of psilocybin versus plasma,[12],brain concentrations of psilocybin are low
same,bioavailability,"[8]; male, Sprague Dawley, rat, plasma, po, 14 mg/kg",< 0.1%
same,Tmax,[8]; [13],IAD
